Experimental data published in the supplement of paper PMC10307832.

Experiments:
Assay in all cases: relative viability (nuclei count vs DMSO), 5 days (fraction); higher = more cells survive
BEN = tested on: BEN
How it was run: (§1)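 Relative viability is defined as nuclei in treated wells over nuclei in vehicle wells. Duplicate plates were run and medians reported. Lung cancer cell lines in 1536-well plates were dosed by pin tool one day after seeding, with one drug or with a fixed anchor-drug dose plus five library-drug doses (not always all listed) in √10 steps, and nuclei were counted after 5 days.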

EKVX = tested on: EKVX
How it was run: as §1

HARA = tested on: HARA
How it was run: as §1

HCC-366 = tested on: HCC-366
How it was run: as §1

HCC-827 = tested on: HCC-827
How it was run: as §1

LOU-NH91 = tested on: LOU-NH91
How it was run: as §1

NCI-H1355 = tested on: NCI-H1355
How it was run: as §1

NCI-H1395 = tested on: NCI-H1395
How it was run: as §1

NCI-H1437 = tested on: NCI-H1437
How it was run: as §1

NCI-H1734 = tested on: NCI-H1734
How it was run: as §1

NCI-H1792 = tested on: NCI-H1792
How it was run: as §1

NCI-H1993 = tested on: NCI-H1993
How it was run: as §1

NCI-H2009 = tested on: NCI-H2009
How it was run: as §1

NCI-H2087 = tested on: NCI-H2087
How it was run: as §1

NCI-H2405 = tested on: NCI-H2405
How it was run: as §1

NCI-H647 = tested on: NCI-H647
How it was run: as §1

NCI-H661 = tested on: NCI-H661
How it was run: as §1

SK-LU-1 = tested on: SK-LU-1
How it was run: as §1

SK-MES-1 = tested on: SK-MES-1
How it was run: as §1

O=c1cc(N2CCOCC2)oc2c(-c3cccc4c3sc3ccccc34)cccc12 + C[C@]1(O)C[C@@H](c2nc(-c3ccc4ccc(-c5ccccc5)nc4c3)c3c(N)nccn32)C1 [Linsitinib] (partner 1 µM)
relative viability (BEN; first compound 0.01 µM): 0.887
relative viability (BEN; first compound 0.03162 µM): 0.916
relative viability (BEN; first compound 0.1 µM): 0.978
relative viability (BEN; first compound 0.3162 µM): 1.02
relative viability (BEN; first compound 1 µM): 0.948
relative viability (EKVX; first compound 0.01 µM): 0.989
relative viability (EKVX; first compound 0.03162 µM): 0.907
relative viability (EKVX; first compound 0.1 µM): 1.19
relative viability (EKVX; first compound 0.3162 µM): 0.956
relative viability (EKVX; first compound 1 µM): 1.01
relative viability (HARA; first compound 0.01 µM): 0.996
relative viability (HARA; first compound 0.03162 µM): 0.933
relative viability (HARA; first compound 0.1 µM): 1.03
relative viability (HARA; first compound 0.3162 µM): 1.17
relative viability (HARA; first compound 1 µM): 0.926
relative viability (HCC-366; first compound 0.01 µM): 0.671
relative viability (HCC-366; first compound 0.03162 µM): 0.656
relative viability (HCC-366; first compound 0.1 µM): 0.797
relative viability (HCC-366; first compound 0.3162 µM): 0.662
relative viability (HCC-366; first compound 1 µM): 0.625
relative viability (HCC-827; first compound 0.01 µM): 0.906
relative viability (HCC-827; first compound 0.03162 µM): 0.977
relative viability (HCC-827; first compound 0.1 µM): 0.941
relative viability (HCC-827; first compound 0.3162 µM): 0.941
relative viability (HCC-827; first compound 1 µM): 0.891
relative viability (LOU-NH91; first compound 0.01 µM): 0.857
relative viability (LOU-NH91; first compound 0.03162 µM): 0.937
relative viability (LOU-NH91; first compound 0.1 µM): 0.938
relative viability (LOU-NH91; first compound 0.3162 µM): 1.03
relative viability (LOU-NH91; first compound 1 µM): 0.936
relative viability (NCI-H1355; first compound 0.01 µM): 0.772
relative viability (NCI-H1355; first compound 0.03162 µM): 0.895
relative viability (NCI-H1355; first compound 0.3162 µM): 0.819
relative viability (NCI-H1355; first compound 1 µM): 0.849
relative viability (NCI-H1395; first compound 0.01 µM): 1.21
relative viability (NCI-H1395; first compound 0.03162 µM): 1.11
relative viability (NCI-H1395; first compound 0.1 µM): 1.03
relative viability (NCI-H1395; first compound 0.3162 µM): 1.12
relative viability (NCI-H1395; first compound 1 µM): 1.2
relative viability (NCI-H1437; first compound 0.01 µM): 1.01
relative viability (NCI-H1437; first compound 0.03162 µM): 1.11
relative viability (NCI-H1437; first compound 0.1 µM): 1.09
relative viability (NCI-H1437; first compound 0.3162 µM): 1
relative viability (NCI-H1437; first compound 1 µM): 0.979
relative viability (NCI-H1734; first compound 0.01 µM): 0.963
relative viability (NCI-H1734; first compound 0.03162 µM): 1.03
relative viability (NCI-H1734; first compound 0.1 µM): 0.906
relative viability (NCI-H1734; first compound 0.3162 µM): 0.843
relative viability (NCI-H1734; first compound 1 µM): 0.89
relative viability (NCI-H1792; first compound 0.01 µM): 0.514
relative viability (NCI-H1792; first compound 0.03162 µM): 0.513
relative viability (NCI-H1792; first compound 0.1 µM): 0.564
relative viability (NCI-H1792; first compound 0.3162 µM): 0.502
relative viability (NCI-H1792; first compound 1 µM): 0.574
relative viability (NCI-H1993; first compound 0.01 µM): 0.73
relative viability (NCI-H1993; first compound 0.03162 µM): 0.785
relative viability (NCI-H1993; first compound 0.1 µM): 0.687
relative viability (NCI-H1993; first compound 0.3162 µM): 0.79
relative viability (NCI-H1993; first compound 1 µM): 0.531
relative viability (NCI-H2009; first compound 0.01 µM): 1.16
relative viability (NCI-H2009; first compound 0.03162 µM): 1.17
relative viability (NCI-H2009; first compound 0.1 µM): 1.19
relative viability (NCI-H2009; first compound 0.3162 µM): 1.17
relative viability (NCI-H2009; first compound 1 µM): 1.05
relative viability (NCI-H2087; first compound 0.01 µM): 1.04
relative viability (NCI-H2087; first compound 0.03162 µM): 1.12
relative viability (NCI-H2087; first compound 0.1 µM): 0.899
relative viability (NCI-H2087; first compound 0.3162 µM): 0.899
relative viability (NCI-H2087; first compound 1 µM): 0.985
relative viability (NCI-H2405; first compound 0.01 µM): 0.972
relative viability (NCI-H2405; first compound 0.03162 µM): 1.01
relative viability (NCI-H2405; first compound 0.1 µM): 1.01
relative viability (NCI-H2405; first compound 0.3162 µM): 0.924
relative viability (NCI-H2405; first compound 1 µM): 0.955
relative viability (NCI-H647; first compound 0.01 µM): 1.02
relative viability (NCI-H647; first compound 0.03162 µM): 1.24
relative viability (NCI-H647; first compound 0.1 µM): 1.22
relative viability (NCI-H647; first compound 0.3162 µM): 1.09
relative viability (NCI-H647; first compound 1 µM): 0.954
relative viability (NCI-H661; first compound 0.01 µM): 0.652
relative viability (NCI-H661; first compound 0.03162 µM): 0.579
relative viability (NCI-H661; first compound 0.1 µM): 0.571
relative viability (NCI-H661; first compound 0.3162 µM): 0.649
relative viability (NCI-H661; first compound 1 µM): 0.614
relative viability (SK-LU-1; first compound 0.03162 µM): 1.25
relative viability (SK-LU-1; first compound 0.1 µM): 1.12
relative viability (SK-LU-1; first compound 0.3162 µM): 1.19
relative viability (SK-LU-1; first compound 1 µM): 0.969
relative viability (SK-MES-1; first compound 0.01 µM): 1.17
relative viability (SK-MES-1; first compound 0.03162 µM): 1.02
relative viability (SK-MES-1; first compound 0.1 µM): 1.05
relative viability (SK-MES-1; first compound 0.3162 µM): 1.09
relative viability (SK-MES-1; first compound 1 µM): 1.01
